Among the data in ChEMBL document CHEMBL3879881, “Substituted pyrazolyl compounds for the treatment of inflammation” (2005) are IC50 values, retold here.

The target of this assay is T1, Inhibitor of nuclear factor kappa-B kinase subunit beta (Homo sapiens, UniProt O14920).
T1 sequence (O14920 whole entry): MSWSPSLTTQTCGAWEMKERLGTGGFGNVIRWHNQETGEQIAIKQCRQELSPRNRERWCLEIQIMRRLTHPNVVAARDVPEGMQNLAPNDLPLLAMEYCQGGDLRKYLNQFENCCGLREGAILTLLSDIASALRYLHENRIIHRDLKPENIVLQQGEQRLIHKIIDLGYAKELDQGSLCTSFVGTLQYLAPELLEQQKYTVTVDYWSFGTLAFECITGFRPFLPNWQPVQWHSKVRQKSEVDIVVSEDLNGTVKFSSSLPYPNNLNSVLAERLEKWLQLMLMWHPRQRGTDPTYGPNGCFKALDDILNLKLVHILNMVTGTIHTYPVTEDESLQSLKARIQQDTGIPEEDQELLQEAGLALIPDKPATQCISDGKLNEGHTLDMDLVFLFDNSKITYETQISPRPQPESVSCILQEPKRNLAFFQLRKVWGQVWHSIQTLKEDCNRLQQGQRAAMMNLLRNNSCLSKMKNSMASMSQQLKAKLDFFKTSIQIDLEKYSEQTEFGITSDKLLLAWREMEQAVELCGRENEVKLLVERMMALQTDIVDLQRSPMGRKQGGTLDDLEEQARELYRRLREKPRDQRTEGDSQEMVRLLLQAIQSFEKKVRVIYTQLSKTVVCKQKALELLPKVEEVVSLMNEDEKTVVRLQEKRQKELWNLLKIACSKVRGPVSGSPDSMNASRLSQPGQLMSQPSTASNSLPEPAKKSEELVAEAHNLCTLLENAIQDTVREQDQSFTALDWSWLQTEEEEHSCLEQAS
In words: Inhibition of human recombinant C-terminal FLAG-epitope-tagged IKK2 expressed in baculovirus using biotinylated IkappaBalpha peptide as substrate assessed as decrease in [gamma-33P]-ATP incorporation in substrate after 30 mins by scintillation counting method.
Consider `C[S+]([O-])c1ccc(Cl)c(C(=O)Nc2ccc3c(c2)-c2c(c(C(N)=O)nn2-c2ccc(F)cc2)CC3)c1` (centres undefined), for which the IC50 (as a rule, the concentration that inhibits the measured activity by half) was ≤ 1000 nM.

Consider `CC1Cc2c(C(N)=O)nn(-c3ccc(F)cc3)c2-c2cc(NC(=O)c3ccncc3Cl)ccc21` (centres undefined), for which the IC50 is ≤ 1000 nM.

As for `CS(=O)(=O)c1ccc(-n2nc(C(N)=O)c3c2-c2cc(NC(=O)c4cc(N=[N+]=[N-])ccc4[N+](=O)O)ccc2CC3)cc1`, the IC50 is ≤ 1000 nM.

Turning to `CNC(=O)/C=C/c1ccc(-n2nc(C(N)=O)c3c2-c2cc(NS(C)(=O)=O)ccc2CC3)cc1`, the IC50 was ≤ 1000 nM.

For `NC(=O)c1nn(-c2ccc(S(N)(=O)=O)cc2)c2c1CCc1ccc(NS(=O)(=O)c3ccc(-c4ccccn4)s3)cc1-2`, the IC50 lay in the range of 10000 to 100000 nM.

`CN(C)CC(=O)Nc1ccc(C(=O)Nc2ccc3c(c2)-c2c(c(C(N)=O)nn2-c2ccc4c(c2)OCO4)CC3)c(Cl)c1`: the IC50 is 1000 to 10000 nM.

Regarding `CCCS(=O)(=O)Nc1ccc2c(c1)-c1c(c(C(N)=O)nn1-c1ccc(S(N)(=O)=O)cc1)CC2`, the IC50 lay in the range of 1000 to 10000 nM.

Regarding `NC(=O)c1nn(-c2ccc(S(N)(=O)=O)cc2)c2c1CCc1ccc(NC(=O)c3ccccc3)cc1-2`, the IC50 lay in the range of 1000 to 10000 nM.

Take `NC(=O)c1nn(-c2ccc(S(N)(=O)=O)cc2)c2c1CCc1ccc(NC(=O)c3ccccc3Br)cc1-2`: the IC50 was ≤ 1000 nM.

Regarding `CN(C)CCNS(=O)(=O)c1ccc(-n2nc(C(N)=O)c3c2-c2cc(NC(=O)c4ccccc4Cl)ccc2CC3)cc1`, the IC50 is ≤ 1000 nM.

For the molecule `CS(=O)(=O)c1ccc(-n2nc(C(N)=O)c3c2-c2cc(NC(=O)c4cn[nH]c4)ccc2CC3)cc1`, the IC50 was 1000 to 10000 nM.

For the molecule `NC(=O)c1nn(-c2ccc3c(c2)OCO3)c2c1CCc1ccc(NC(=O)CNC3CCCCC3)cc1-2`, the half-maximal inhibitory concentration (IC50) lay within 1000 to 10000 nM.

As to `NC(=O)c1nn(-c2ccc(S(N)(=O)=O)cc2)c2c1CCc1ccc(NS(=O)(=O)c3ccc4cccnc4c3)cc1-2`, the IC50 was > 100000 nM.

In the case of `Cc1cccc(C(=O)Nc2ccc3c(c2)-c2c(c(C(N)=O)nn2-c2ccc(S(C)(=O)=O)cc2)CC3)c1`, the IC50 was 1000 to 10000 nM.

For `NC(=O)c1nn(-c2cc(F)c(N)cc2F)c2c1CCc1ccc(NC(=O)c3ccncc3Cl)cc1-2`, the IC50 is ≤ 1000 nM.

Regarding `NC(=O)c1nn(-c2cc(F)cc(F)c2)c2c1CCc1ccc(NC(=O)c3cccc(Cl)c3Cl)cc1-2`, the IC50 fell in the range of 1000 to 10000 nM.

Turning to `CN1CC=C(c2cc(C(=O)Nc3ccc4c(c3)-c3c(c(C(N)=O)nn3-c3ccc(F)cc3)CC4)c(Cl)cn2)CC1`, the IC50 is ≤ 1000 nM.

`N#Cc1cccc(C(=O)Nc2ccc3c(c2)-c2c(c(C(N)=O)nn2-c2ccc(S(N)(=O)=O)cc2)CC3)c1`: the concentration for half-maximal inhibition (IC50) was ≤ 1000 nM.

As for `CC(=O)c1ccc(-n2nc(C(N)=O)c3c2-c2cc(NC(=O)c4cccnc4Cl)ccc2CC3)cc1`, the IC50 was 1000 to 10000 nM.

Consider `NC(=O)c1nn(-c2ccc3c(c2)OCO3)c2c1CCc1ccc(NC(=O)c3cccnc3N)cc1-2`, for which the IC50 lay in the range of 1000 to 10000 nM.

On to `CN(C)c1cccc2c(S(=O)(=O)Nc3ccc4c(c3)-c3c(c(C(N)=O)nn3-c3ccc(S(N)(=O)=O)cc3)CC4)cccc12`, for which the IC50 lay in the range of 1000 to 10000 nM.

Regarding `CC1(C)OCC(COc2ccc(-n3nc(C(N)=O)c4c3-c3cc(NC(=O)c5cccnc5Cl)ccc3CC4)cc2)O1` (centres undefined), the IC50 was in the range of 1000 to 10000 nM.

For `CCNC(=O)Nc1ccc2c(c1)-c1c(c(C(N)=O)nn1-c1ccc(S(N)(=O)=O)cc1)CC2`, the IC50 lay within 1000 to 10000 nM.

For the molecule `C[S+]([O-])c1ccc(Cl)c(C(=O)Nc2ccc3c(c2)-c2c(c(C(N)=O)nn2-c2ccc4c(c2)OCO4)CC3)c1` (centres undefined), the IC50 was ≤ 1000 nM.

Consider `CS(=O)(=O)c1ccc(-n2nc(C(N)=O)c3c2-c2cc(NC(=O)c4cc(S(C)(=O)=O)ccc4Cl)ccc2CC3)cc1`, for which the IC50 is ≤ 1000 nM.

Take `CS(=O)(=O)c1ccc(-n2nc(C(N)=O)c3c2-c2cc(NC(=O)c4cc(Cl)ccc4N)ccc2CC3)cc1`: the IC50 lay within 1000 to 10000 nM.

With `CC1(C)OCC(COc2ccc(-n3nc(C(N)=O)c4c3-c3cc(NC(=O)c5ccncc5Cl)ccc3CC4)cc2)O1` (centres undefined), the 50% inhibitory concentration (IC50) fell in the range of 1000 to 10000 nM.

On to `CS(=O)(=O)Nc1ccc2c(c1)-c1c(c(C(N)=O)nn1-c1ccc(F)cc1)CC2`, for which the IC50 lay within 1000 to 10000 nM.

Turning to `CN(C)CCN(C)c1cc(C(=O)Nc2ccc3c(c2)-c2c(c(C(N)=O)nn2-c2ccc(F)cc2)CC3)c(Cl)cn1`, the IC50 is ≤ 1000 nM.

Turning to `CSc1ncc(Cl)c(C(=O)Nc2ccc3c(c2)-c2c(c(C(N)=O)nn2-c2ccc4c(c2)OCO4)CC3)n1`, the IC50 was ≤ 1000 nM.

With `NC(=O)c1nn(-c2cc(F)cc(F)c2)c2c1CCc1ccc(NC(=O)c3ccccc3Cl)cc1-2`, the 50% inhibitory concentration (IC50) was ≤ 1000 nM.

Take `NC(=O)c1nn(-c2ccc(-c3ccc(C(=O)O)cc3)cc2)c2c1CCc1ccc(NC(=O)c3ccccc3Cl)cc1-2`: the IC50 lay in the range of 1000 to 10000 nM.

On to `COc1ccc(CNc2ccc3c(c2)-c2c(c(C(N)=O)nn2-c2ccc(S(N)(=O)=O)cc2)CC3)cc1`, for which the IC50 lay within 1000 to 10000 nM.

For the molecule `CCCCC(=O)Nc1ccc2c(c1)-c1c(c(C(N)=O)nn1-c1ccc(S(N)(=O)=O)cc1)CC2`, the IC50 fell in the range of 1000 to 10000 nM.

Regarding `NC(=O)c1nn(-c2ccc(S(N)(=O)=O)cc2)c2c1CCc1ccc(NC(=O)C3CC3)cc1-2`, the IC50 fell in the range of 1000 to 10000 nM.

In the case of `Cc1cccc(-n2nc(C(N)=O)c3c2-c2cc(NC(=O)c4ccccc4Cl)ccc2CC3)c1`, the IC50 is ≤ 1000 nM.

On to `NC(=O)c1nn(-c2ccc(S(N)(=O)=O)cc2)c2c1CCc1ccc(NS(=O)(=O)c3cccc(C(F)(F)F)c3)cc1-2`, for which the IC50 fell in the range of 10000 to 100000 nM.

On to `NC(=O)c1nn(-c2ccc(S(N)(=O)=O)cc2)c2c1CCc1ccc(NC(=O)c3cccc(Cl)c3Cl)cc1-2`, for which the IC50 is ≤ 1000 nM.

`NC(=O)c1nn(-c2ccc(S(N)(=O)=O)cc2)c2c1CCc1ccc(NS(=O)(=O)c3cccc4ccccc34)cc1-2`: the IC50 was in the range of 10000 to 100000 nM.

Take `CC(C)S(=O)(=O)Nc1ccc2c(c1)-c1c(c(C(N)=O)nn1-c1ccc(S(N)(=O)=O)cc1)CC2`: the IC50 lay within 1000 to 10000 nM.

Take `CN(C)C(=O)/C=C/c1ccc(-n2nc(C(N)=O)c3c2-c2cc(NS(C)(=O)=O)ccc2CC3)cc1`: the IC50 is 1000 to 10000 nM.

In the case of `NC(=O)c1nn(-c2ccc(S(N)(=O)=O)cc2)c2c1CCc1ccc(NS(=O)(=O)c3cc(Cl)c(Cl)cc3Cl)cc1-2`, the IC50 lay in the range of 1000 to 10000 nM.

With `CCOC(=O)/C=C/c1ccc(-n2nc(C(N)=O)c3c2-c2cc(NC(=O)c4ccccc4Cl)ccc2CC3)cc1`, the IC50 was 1000 to 10000 nM.

As to `C[S+]([O-])c1ccc(-n2nc(C(N)=O)c3c2-c2cc(NS(C)(=O)=O)ccc2CC3)cc1` (centres undefined), the IC50 was 1000 to 10000 nM.

Regarding `NC(=O)c1nn(-c2ccc(OCC(O)CO)cc2)c2c1CCc1ccc(NC(=O)c3cccnc3Cl)cc1-2` (centres undefined), the IC50 was ≤ 1000 nM.

Consider `Cc1ncccc1C(=O)Nc1ccc2c(c1)-c1c(c(C(N)=O)nn1-c1ccc3c(c1)OCO3)CC2`, for which the IC50 was in the range of 1000 to 10000 nM.

Take `NC(=O)c1nn(-c2ccc(F)cc2)c2c1CCc1ccc(NC(=O)c3ccncc3)cc1-2`: the IC50 was in the range of 1000 to 10000 nM.

For the molecule `NC(=O)c1nn(-c2ccc(S(N)(=O)=O)cc2)c2c1CCc1ccc(NS(=O)(=O)c3cccc(Br)c3)cc1-2`, the IC50 fell in the range of 1000 to 10000 nM.

As for `CC(=O)Oc1cccc(C(=O)Nc2ccc3c(c2)-c2c(c(C(N)=O)nn2-c2cccc(F)c2)CC3)c1C`, the IC50 was 1000 to 10000 nM.

Turning to `CCCCS(=O)(=O)Nc1ccc2c(c1)-c1c(c(C(N)=O)nn1-c1ccc(S(N)(=O)=O)cc1)CC2`, the concentration for half-maximal inhibition (IC50) is 1000 to 10000 nM.

Take `CC(=O)Nc1ccc2c(c1)-c1c(c(C(N)=O)nn1-c1ccc(S(=O)(=O)N(C)C)cc1)CC2`: the half-maximal inhibitory concentration (IC50) was in the range of 1000 to 10000 nM.

Consider `NC(=O)c1nn(-c2cccc([N+](=O)[O-])c2)c2c1CCc1ccc(NC(=O)c3ccccc3Cl)cc1-2`, for which the IC50 was 1000 to 10000 nM.

As to `CN(C)CCNc1cc(C(=O)Nc2ccc3c(c2)-c2c(c(C(N)=O)nn2-c2ccc(F)cc2)CC3)c(Cl)cn1`, the IC50 was ≤ 1000 nM.

For `Cc1nc(S(=O)(=O)Nc2ccc3c(c2)-c2c(c(C(N)=O)nn2-c2ccc(S(N)(=O)=O)cc2)CC3)cn1C`, the IC50 is 10000 to 100000 nM.

As to `NC(=O)c1nn(-c2ccc(Cl)c(Cl)c2)c2c1CCc1ccc(NC(=O)c3ccccc3Cl)cc1-2`, the IC50 was in the range of 1000 to 10000 nM.

With `NC(=O)c1nn(-c2ccc3c(c2)OCO3)c2c1CCc1ccc(NC(=O)c3nc(Cl)ccc3Cl)cc1-2`, the IC50 fell in the range of 1000 to 10000 nM.

For the molecule `CN(C)CCCOc1ccc(-n2nc(C(N)=O)c3c2-c2cc(NC(=O)c4ccccc4Cl)ccc2CC3)cc1`, the IC50 lay in the range of 1000 to 10000 nM.

For `CCCCS(=O)(=O)c1ccc(-n2nc(C(N)=O)c3c2-c2cc(NC(=O)c4ccccc4Cl)ccc2CC3)cc1`, the IC50 is 1000 to 10000 nM.

For the molecule `NC(=O)c1nn(-c2ccc3c(c2)OCO3)c2c1CCc1ccc(NC(=O)CNCC3CC3)cc1-2`, the half-maximal inhibitory concentration (IC50) lay within 1000 to 10000 nM.

For `N#Cc1ccc(Cl)c(C(=O)Nc2ccc3c(c2)-c2c(c(C(N)=O)nn2-c2ccc4c(c2)OCO4)CC3)n1`, the IC50 was in the range of 1000 to 10000 nM.

Turning to `NC(=O)c1nn(-c2ccc(S(N)(=O)=O)cc2)c2c1CCc1ccc(NS(=O)(=O)c3ccc(F)c(F)c3)cc1-2`, the IC50 lay in the range of 10000 to 100000 nM.

On to `N#Cc1cc(C(=O)Nc2ccc3c(c2)-c2c(c(C(N)=O)nn2-c2ccc(F)cc2)CC3)c(Cl)cn1`, for which the IC50 was ≤ 1000 nM.

Turning to `Cc1ccccc1C(=O)Nc1ccc2c(c1)-c1c(c(C(N)=O)nn1-c1ccc3c(c1)OCO3)CC2`, the IC50 is 1000 to 10000 nM.

As to `NC(=O)c1nn(-c2ccc(F)cc2)c2c1CCc1ccc(NC(=O)c3cc(CN4CCOCC4)ncc3Cl)cc1-2`, the IC50 is ≤ 1000 nM.
